Legend:
[1] = tested on: free testosterone levels
Procedure: The following clinical trial was performed to determine the effect of the administration of CASODEX™ together with ARIMIDEX™ on free testosterone levels in healthy male volunteers over a 6 week period.
Dosage: The CASODEX™ was administered daily at a dose of 150 mg and the ARIMIDEX™ was administered daily at a dose of 1 mg. All treatments were in tablet form and taken once daily. Daily treatment with CASODEX™ was for 6 weeks, and with ARIMIDEX™ for the final 2 weeks of this period. The treatment periods were selected as the minimum time to attain steady-state plasma concentrations for the drugs.
Key Assessment: Free testosterone concentrations were measured during the course of the trial.

[2] = tested on: free testosterone concentration; details: after 24 weeks of daily 150 mg CASODEX alone; prostate cancer; cited from earlier work
[3] = tested on: total testosterone; details: bicalutamide single agent therapy, humans; cited from earlier work
[4] = tested on: testosterone, LH, oestradiol, FSH levels; details: cited from earlier work

Structure (SMILES) | Increase in mean free testosterone concentration ([1]; CASODEX alone, end of the treatment period (4 weeks)) [%] | Free testosterone, ratio to Day 1 ([1]; Day 29, CASODEX 150 mg daily alone) | Free testosterone concentration, gmean ([1]; Day 29, CASODEX 150 mg daily alone (up to week 4), n=7) [nmol/1] | Increase in mean free testosterone concentration [2] [%] | Change in basal level of total testosterone [3] | Effect on mean serum testosterone, oestradiol, LH levels, LH pulse frequency and amplitude ([4]; 13 normal men, 6 week period (Spijkstra et al)) | Effect on basal serum levels of LH, oestradiol and testosterone ([4]; administration to men (Lewis-Jones et al)) | Effect on testosterone and LH ([4]; intake in adult men (Comhaire et al)) | Effect on basal LH, FSH and testosterone levels ([4]; three months' treatment, normogonadotrophic oligozoospermic men (van Bergeijk et al))
CC(O)(CS(=O)(=O)c1ccc(F)cc1)C(=O)Nc1ccc(C#N)c(C(F)(F)F)c1 (stereo not drawn) [CASODEX, 4′-cyano-α′,α′, α′-trifluoro-3-(4-fluorophenylsulphonyl)-2-hydroxy-2-methylpropiono-m-toluidide] | 58 | 1.58 | 0.076 | 57 | approximate doubling |  |  |  | 
CC/C(=C(\c1ccccc1)c1ccc(OCCN(C)C)cc1)c1ccccc1 [tamoxifen] |  |  |  |  |  | An increase | elevates the basal serum levels | increase testosterone and LH | stimulated basal LH, FSH and testosterone levels

From patent US20030114519A1, “Pharmaceutical combination of bicalutamide and anastrozole for providing an anti-androgenic effect and aromatase inhibition” (priority 2002, published 2003)
